This is an account of results in patent publication US12139477B2, “Compounds, salts thereof and methods for treatment of diseases” (ACADIA PHARMACEUTICALS INC., priority 2017, dated 2024).

In one assay the target is 5HT2A (Homo sapiens, UniProt P28223). Description: Receptor Selection and Amplification (R-SAT) functional assay. The conditions noted are these: NIH3T3 cells; Ki from IC50 by Cheng and Prussoff. Further details: expressed in transfected cells; host or cells: NIH3T3 cells, pSI mammalian expression vector. It counts as cell-based. An excerpt: Receptor Selection and Amplification (R-SAT) Assays. […] The IC50 determined in the RSAT assay was converted into a Ki value using the method of Cheng and Prussoff, Biochem Pharmacol., 1973 Dec. 1; 22(23):3099-108. pKi is the negative of the log(Ki).
5HT2A, sequence (P28223 whole entry): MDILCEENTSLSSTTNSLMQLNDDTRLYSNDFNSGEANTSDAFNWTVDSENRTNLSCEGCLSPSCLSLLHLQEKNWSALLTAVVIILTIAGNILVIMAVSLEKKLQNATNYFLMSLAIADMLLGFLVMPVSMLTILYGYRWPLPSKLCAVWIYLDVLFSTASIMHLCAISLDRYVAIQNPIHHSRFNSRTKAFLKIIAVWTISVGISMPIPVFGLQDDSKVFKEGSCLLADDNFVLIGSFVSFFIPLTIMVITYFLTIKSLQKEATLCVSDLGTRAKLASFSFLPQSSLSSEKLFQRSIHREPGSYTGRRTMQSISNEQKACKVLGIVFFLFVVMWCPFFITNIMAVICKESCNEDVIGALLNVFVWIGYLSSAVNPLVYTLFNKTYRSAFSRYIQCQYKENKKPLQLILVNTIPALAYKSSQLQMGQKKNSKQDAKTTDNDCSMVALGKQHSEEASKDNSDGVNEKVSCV
As for `CCCCOc1ccc(CNC(=O)N(Cc2ccc(F)cc2F)C2CCNCC2)cc1.CCCCOc1ccc(CNC(=O)N(Cc2ccc(F)cc2F)C2CCNCC2)cc1.O=C(O)C(O)C(O)C(=O)O` [Example 123, 3-[(4-butoxyphenyl)methyl]-1-[(2,4-difluorophenyl)methyl]-1-(piperidin-4-yl)urea; Hemitartrate], the “5-HT2a (pKi) (R-SAT)” value worked out at 7.8.

As for `CCOc1ccc(CNC(=O)N(Cc2ccc(F)cc2F)C2CCNCC2)cc1.CCOc1ccc(CNC(=O)N(Cc2ccc(F)cc2F)C2CCNCC2)cc1.O=C(O)C(O)C(O)C(=O)O` [Example 127, 3-[(2,4-difluorophenyl)methyl]-1-[(4-ethoxyphenyl)methyl]-3-(piperidin-4-yl)urea; Hemitartrate], the “5-HT2a (pKi) (R-SAT)” value stood at 8.2.

Still in this assay, the particulars now being: NIH3T3 cells; Ki from IC50 by Cheng and Prussoff; read-out: 5-HT2a (pKi) (R-SAT) (converted).
For `CN1CCC(N(Cc2ccc(F)cc2F)C(=O)NCc2ccc(COCCO)c(F)c2)CC1` [Example 88, 1-[(2,4-difluorophenyl)methyl]-3-({3-fluoro-4-[(2-hydroxyethoxy)methyl]phenyl}methyl)-1-(1-methylpiperidin-4-yl)urea; Trifluoroacetic Acid], the Ki is 63.1 nM.

Turning to `CN1CCC(N(Cc2ccc(F)cc2F)C(=O)NCc2ccc3c(ccn3C)c2)CC1` [Example 31], the Ki is 6.31 nM.

For `Cc1ccc(F)c(CN(C(=O)NCc2ccc(OC(C)C)cc2)C2CCN(C)CC2)c1F` [Example 112, 1-[(2,6-difluoro-3-methylphenyl)methyl]-1-(1-methylpiperidin-4-yl)-3-{[4-(propan-2-yloxy)phenyl]methyl}urea; Trifluoroacetic Acid], the Ki is 39.8 nM.

With `CC(C)Oc1ccc(CNC(=O)N(Cc2ccc(Cl)cc2F)C2CCNCC2)cc1` [Example 133, 3-[(4-chloro-2-fluorophenyl)methyl]-3-(piperidin-4-yl)-1-{[4-(propan-2-yloxy)phenyl]methyl}urea; Trifluoroacetic Acid], the Ki was 5.01 nM.

In the case of `CN1CCC(N(Cc2ccc(F)cc2F)C(=O)NCc2cccc3c2CC(C)(C)O3)CC1` [Example 58], the Ki was 158 nM.

Turning to `CC(C)COc1ccc(CNC(=O)N(Cc2ccc(F)cc2Cl)C2CCNCC2)cc1` [Example 109, 1-[(2-chloro-4-fluorophenyl)methyl]-3-{[4-(2-methylpropoxy)phenyl]methyl}-1-(piperidin-4-yl)urea; Trifluoroacetic Acid], the Ki was 25.1 nM.

Consider `O=C(O)C(F)(F)F.[2H]C1([2H])Oc2ccc(CNC(=O)N(Cc3ccc(F)cc3F)C3CCN(C)CC3)cc2C1([2H])[2H]` [Example 159, 1-[(2,4-difluorophenyl)methyl]-3-{[2,3-dihydro(2,2,3,3-^2H4)-1-benzofuran-5-yl]methyl}-1-(1-methylpiperidin-4-yl)urea; Trifluoroacetic Acid], for which the Ki is 7.94 nM.

As to `COc1ccc(CNC(=O)N(Cc2ccc(F)cc2F)C2CCN(C)CC2)cc1F` [Example 118, 1-[(2,4-difluorophenyl)methyl]-3-[(3-fluoro-4-methoxyphenyl)methyl]-1-(1-methylpiperidin-4-yl)urea], the Ki is 10 nM.

For the compound `CN1CCC(N(Cc2ccc(F)cc2F)C(=O)NCc2ccc(O)cc2F)CC1` [Example 119, 1-[(2,4-difluorophenyl)methyl]-3-[(2-fluoro-4-hydroxyphenyl)methyl]-1-(1-methylpiperidin-4-yl)urea], the Ki was 63.1 nM.

On to `CCCOc1ccc(CNC(=O)N(Cc2ccc(F)cc2F)C2CCN(C)CC2)cc1` [Example 140, 1-[(2,4-difluorophenyl)methyl]-1-(1-methylpiperidin-4-yl)-3-[(4-propoxyphenyl)methyl]urea], for which the Ki was 3.16 nM.

Take `CC(C)Oc1ccc(CNC(=O)N(Cc2ccc(F)c(F)c2F)C2CCNCC2)cc1` [Example 132, 1-(piperidin-4-yl)-3-{[4-(propan-2-yloxy)phenyl]methyl}-1-[(2,3,4-trifluorophenyl)methyl]urea; Trifluoroacetic Acid]: the Ki is 79.4 nM.

Turning to `CC(C)Oc1ccc(CNC(=O)N(Cc2ccc(F)cc2F)C2CCCN(C)CC2)cc1` (stereo not drawn) [Example 78, 1-[(2,4-difluorophenyl)methyl]-1-(1-methylazepan-4-yl)-3-{[4-(propan-2-yloxy)phenyl]methyl}urea; Trifluoroacetic Acid], the Ki is 6.31 nM.

With `COc1cc(F)c(F)cc1CN(C(=O)NCc1ccc(OC(C)C)cc1)C1CCNCC1` [Example 83, 3-[(4,5-difluoro-2-methoxyphenyl)methyl]-3-(piperidin-4-yl)-1-{[4-(propan-2-yloxy)phenyl]methyl}urea; Trifluoroacetic Acid], the Ki was 158 nM.

On to `C[C@H](c1ccc(F)cc1F)N(C(=O)NCc1ccc(OC2CC2)cc1)C1CCN(C)CC1` [Example 47], for which the Ki was 126 nM.

For the compound `COc1ccc(CNC(=O)N(Cc2ccc(F)cc2F)C2CCN(C)CC2)c(OC)c1` [Example 50], the Ki is 100 nM.

Regarding `[2H]C([2H])([2H])Oc1ccc(CNC(=O)N(Cc2ccc(F)cc2F)C2CCN(C)CC2)cc1` [Example 73, 1-[(2,4-difluorophenyl)methyl]-3-{[4-(^2H3)methoxyphenyl]methyl}-1-(1-methylpiperidin-4-yl)urea], the Ki was 6.31 nM.

Take `CN1CCC(N(Cc2ccc(F)cc2F)C(=O)NCc2ccc3ncoc3c2)CC1` [Example 29]: the Ki was 10 nM.

Turning to `CC(C)COc1ccc(CNC(=O)N(Cc2cc(F)ccc2F)C2CCN(C)CC2)cc1` [Example 63], the Ki is 79.4 nM.

Take `COc1ccc(CNC(=O)N(Cc2ccc(F)cc2F)C2CCN(C)CC2)c(Cl)c1` [Example 51]: the Ki is 25.1 nM.

For `Cc1cc(F)ccc1CN(C(=O)NCc1ccc(OCC(C)C)cc1)C1CCN(C)CC1` [Example 104, 1-[(4-fluoro-2-methylphenyl)methyl]-1-(1-methylpiperidin-4-yl)-3-{[4-(2-methylpropoxy)phenyl]methyl}urea; Trifluoroacetic Acid], the Ki is 39.8 nM.

As for `CN1CCC(N(Cc2ccc(F)cc2F)C(=O)NCc2ccc3[nH]ncc3c2)CC1` [Example 93, 1-[(2,4-difluorophenyl)methyl]-3-[(1H-indazol-5-yl)methyl]-1-(1-methylpiperidin-4-yl)urea; Trifluoroacetic Acid], the Ki was 39.8 nM.

As to `O=C(O)C(F)(F)F.[2H]C([2H])([2H])C(Oc1ccc(CNC(=O)N(Cc2ccc(F)cc2F)C2CCN(C)CC2)cc1)(C([2H])([2H])[2H])C([2H])([2H])[2H]` [Example 46], the Ki is 0.794 nM.

In the case of `Cc1cc(OC(C)C)ccc1CNC(=O)N(Cc1ccc(F)cc1F)C1CCN(C)CC1` [Example 116, 1-[(2,4-difluorophenyl)methyl]-3-{[2-methyl-4-(propan-2-yloxy)phenyl]methyl}-1-(1-methylpiperidin-4-yl)urea; Hemitartrate], the Ki was 63.1 nM.

`CN1CCC(N(Cc2ccc(F)cc2F)C(=O)NCc2ccc(F)cc2OC(F)(F)F)CC1` [Example 99, 1-[(2,4-difluorophenyl)methyl]-3-{[4-fluoro-2-(trifluoromethoxy)phenyl]methyl}-1-(1-methylpiperidin-4-yl)urea; Trifluoroacetic Acid]: the Ki was 79.4 nM.

Turning to `CC(C)COc1ccc(CNC(=O)N(Cc2c(F)cccc2F)C2CCN(C)CC2)cc1` [Example 72], the Ki is 15.8 nM.

For `CN1CCC(N(Cc2ccc(F)cc2F)C(=O)NCc2ccc([N+](=O)[O-])cc2F)CC1` [Example 97, 1-[(2,4-difluorophenyl)methyl]-3-[(2-fluoro-4-nitrophenyl)methyl]-1-(1-methylpiperidin-4-yl)urea; Trifluoroacetic Acid], the Ki is 39.8 nM.

As to `CN1CCC(N(Cc2ccc(F)cc2F)C(=O)NCc2ccc3c(c2)N(C)CCO3)CC1` [Example 32], the Ki was 7.94 nM.

With `O=C(O)C(F)(F)F.[2H]C([2H])([2H])N1CCC(N(Cc2ccc(F)cc2F)C(=O)NCc2ccc(OC(C)C)cc2)CC1` [Example 131, 1-[(2,4-difluorophenyl)methyl]-1-[1-(^2H3)methylpiperidin-4-yl]-3-{[4-(propan-2-yloxy)phenyl]methyl}urea; Trifluoroacetic Acid], the Ki was 0.631 nM.

For `COCCCOc1ccc(CNC(=O)N(Cc2ccc(F)cc2F)C2CCN(C)CC2)cc1` [Example 96, 1-[(2,4-difluorophenyl)methyl]-3-{[4-(3-methoxypropoxy)phenyl]methyl}-1-(1-methylpiperidin-4-yl)urea; Trifluoroacetic Acid], the Ki is 10 nM.

As for `CC(C)COc1ccc(CNC(=O)N(Cc2ccc(F)cc2N(C)C)C2CCN(C)CC2)cc1` [Example 69], the Ki is 631 nM.

For `CC(C)COc1ccc(CNC(=O)N(Cc2cccc(F)c2F)C2CCN(C)CC2)cc1` [Example 129, 1-[(2,3-difluorophenyl)methyl]-1-(1-methylpiperidin-4-yl)-3-{[4-(2-methylpropoxy)phenyl]methyl}urea; Trifluoroacetic Acid], the Ki was 50.1 nM.

Consider `CC(C)COc1ccc(CNC(=O)N(Cc2ccc(F)cc2OCc2ccccc2)C2CCN(C)CC2)cc1` [Example 13b, 1-{[2-(benzyloxy)-4-fluorophenyl]methyl}-1-(1-methylpiperidin-4-yl)-3-{[4-(2-methylpropoxy)phenyl]methyl}urea], for which the Ki is 63.1 nM.

Regarding `CC(C)Oc1ccc(CNC(=O)N(Cc2ccc(F)cc2Cl)C2CCNCC2)cc1` [Example 110, 1-[(2-chloro-4-fluorophenyl)methyl]-1-(piperidin-4-yl)-3-{[4-(propan-2-yloxy)phenyl]methyl}urea; Trifluoroacetic Acid], the Ki is 25.1 nM.

Regarding `COc1c(F)ccc(CNC(=O)N(Cc2ccc(F)cc2F)C2CCN(C)CC2)c1F` [Example 54], the Ki is 7.94 nM.
